“And” between values parts separate entries of the source, which are not always exact repeats. Equal entries are not always repeated. Records with an inconclusive call do not appear.

For the experiment, the system named is BDF1 mice, colon carcinoma 38 sc, T/C %. In words: NCI In Vivo Anticancer Drug Screen. Data for tumor model Colon Carcinoma 38 (subcutaneous) in B6D2F1 (BDF1) mice. The note with it: endpoint: median tumor weight (est.), higher = larger tumour. The method, boiled down: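 Compound antitumor activity was assessed in mice carrying transplantable tumors. Survival or tumor size was recorded, and each value is the treated-group measurement divided by that of the vehicle-treated control group.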

[1] abbreviates: dose: 12.5 mg/kg/injection, schedule: Q07DX002 (ip), vehicle: saline.
Where [2] appears, read: dose: 25.0 mg/kg/injection, schedule: Q07DX002 (ip), vehicle: saline.
Setting [3] is: dose: 12.5 mg/kg/injection, schedule: Q07DX002 (ip), vehicle: saline with Tween-80.
Setting [4] is: dose: 50.0 mg/kg/injection, schedule: Q07DX002 (ip), vehicle: saline with Tween-80.
Where [5] appears, read: dose: 100.0 mg/kg/injection, schedule: Q07DX002 (ip), vehicle: saline with Tween-80.
The mark [6] stands for this setting: dose: 200.0 mg/kg/injection, schedule: Q07DX002 (ip), vehicle: saline with Tween-80.
Setting [7] is: dose: 400.0 mg/kg/injection, schedule: Q07DX002 (ip), vehicle: saline with Tween-80.
Setting [8] is: dose: 12.5 mg/kg/injection, schedule: Q07DX002 (ip), vehicle: Klucel (hydroxypropylcellulose) (HPC).
Where [9] appears, read: dose: 25.0 mg/kg/injection, schedule: Q07DX002 (ip), vehicle: Klucel (hydroxypropylcellulose) (HPC).
Where [10] appears, read: dose: 50.0 mg/kg/injection, schedule: Q07DX002 (ip), vehicle: Klucel (hydroxypropylcellulose) (HPC).
[11] abbreviates: dose: 100.0 mg/kg/injection, schedule: Q07DX002 (ip), vehicle: Klucel (hydroxypropylcellulose) (HPC).
Setting [12] is: dose: 200.0 mg/kg/injection, schedule: Q07DX002 (ip), vehicle: Klucel (hydroxypropylcellulose) (HPC).
The mark [13] stands for this setting: dose: 400.0 mg/kg/injection, schedule: Q07DX002 (ip), vehicle: Klucel (hydroxypropylcellulose) (HPC).
Setting [14] is: dose: 50.0 mg/kg/injection, schedule: Q07DX002 (ip), vehicle: water.
[15] abbreviates: dose: 100.0 mg/kg/injection, schedule: Q07DX002 (ip), vehicle: water.
Where [16] appears, read: dose: 200.0 mg/kg/injection, schedule: Q07DX002 (ip), vehicle: water.
Where [17] appears, read: dose: 400.0 mg/kg/injection, schedule: Q07DX002 (ip), vehicle: water.

For the compound `N=C(N)CCCCCCCCC(=N)N`, the T/C (dose: 1.56 mg/kg/injection, schedule: Q07DX002 (ip), vehicle: saline) is 102 % of control; the T/C (dose: 3.12 mg/kg/injection, schedule: Q07DX002 (ip), vehicle: saline) was 88 % of control and 99 % of control; the T/C (dose: 6.25 mg/kg/injection, schedule: Q07DX002 (ip), vehicle: saline) is 107 % of control; the T/C under setting [1] was 76 % of control; the T/C under setting [2] was 112 % of control.

For the compound `COc1ccc(OC)c(/C=C/c2ccnc3ccccc23)c1`, the T/C was 152 % of control under setting [3]; 101 % of control (dose: 25.0 mg/kg/injection, schedule: Q07DX002 (ip), vehicle: saline with Tween-80); 86 % of control under setting [4]; 116 % of control under setting [5]; 111 % of control under setting [6]; 75 % of control under setting [7].

For the compound `C=C1C(=O)O[C@H]2/C=C(/C)C3=CC(=O)[C@@](C)(C[C@@H](OC(=O)/C(C)=C\C)C12)O3` (some centres undefined), the T/C was 63 % of control (dose: 3.12 mg/kg/injection, schedule: Q07DX002 (ip), vehicle: Klucel (hydroxypropylcellulose) (HPC)); 95 % of control (dose: 6.25 mg/kg/injection, schedule: Q07DX002 (ip), vehicle: Klucel (hydroxypropylcellulose) (HPC)); 58 % of control under setting [8]; 79 % of control under setting [9].

With `Oc1c(Cl)cc(C(c2cc(Cl)c(O)c(Cl)c2)C(c2cc(Cl)c(O)c(Cl)c2)c2cc(Cl)c(O)c(Cl)c2)cc1Cl`, the T/C under setting [8] was 115 % of control and 99 % of control; the T/C under setting [9] is 123 % of control; the T/C under setting [10] was 96 % of control; the T/C under setting [11] was 95 % of control and 104 % of control; the T/C under setting [12] was 63 % of control and 86 % of control; the T/C under setting [13] was 57 % of control and 82 % of control.

As to `O=C(NO)c1ccc(O)c(O)c1`, the T/C is, setting by setting: under setting [14], 88 % of control; under setting [15], 92 % of control; under setting [16], 85 % of control; under setting [17], 48 % of control.

Consider `O=C1NCC(Br)C(=O)N1` (centres undefined), for which the T/C (dose: 12.5 mg/kg/injection, schedule: Q07DX002 (ip), vehicle: saline + Tween-80 + alcohol) is 97 % of control; the T/C (dose: 25.0 mg/kg/injection, schedule: Q07DX002 (ip), vehicle: saline + Tween-80 + alcohol) is 83 % of control; the T/C (dose: 50.0 mg/kg/injection, schedule: Q07DX002 (ip), vehicle: saline + Tween-80 + alcohol) is 99 % of control; the T/C (dose: 100.0 mg/kg/injection, schedule: Q07DX002 (ip), vehicle: saline + Tween-80 + alcohol) is 76 % of control; the T/C under setting [5] is 157 % of control; the T/C (dose: 200.0 mg/kg/injection, schedule: Q07DX002 (ip), vehicle: saline + Tween-80 + alcohol) is 84 % of control. Also, for the setting “dose: 400.0 mg/kg/injection, schedule: Q07DX002 (ip), vehicle: saline + Tween-80 + alcohol”, the T/C was 63 % of control.

In the case of `CC12C(=O)C=CCC1=CCC1C2CCC2(O)C(=O)OC3(C)C4CC5(C)C(COC16OC23C5C6=O)C(=O)O4` (centres undefined), the T/C by setting is: under setting [10], 112 % of control; under setting [11], 86 % of control; under setting [13], 111 % of control.

Turning to `Nc1nc(N)c2cc(CNc3ccc(C(=O)NC(CC(=O)O)CC(=O)O)cc3)ccc2n1`, the T/C is, setting by setting: under setting [9], 120 % of control; under setting [10], 97 % of control; under setting [11], 60 % of control; under setting [12], 114 % of control; under setting [13], 76 % of control.

In the case of `CC(=O)N(C)C`, the T/C (dose: 225.0 mg/kg/injection, schedule: Q07DX002 (ip), vehicle: saline) was 123 % of control; the T/C (dose: 900.0 mg/kg/injection, schedule: Q07DX002 (ip), vehicle: saline) is 111 % of control and 100 % of control; the T/C (dose: 1800.0 mg/kg/injection, schedule: Q07DX002 (ip), vehicle: saline) was 62 % of control and 84 % of control; the T/C (dose: 3600.0 mg/kg/injection, schedule: Q07DX002 (ip), vehicle: saline) was 46 % of control and 65 % of control.

Consider `CN(C)CCN1C(=O)c2cccc3cc([N+](=O)[O-])cc(c23)C1=O`, for which the T/C by setting is: (dose: 1.56 mg/kg/injection, schedule: Q07DX002 (ip), vehicle: saline with Tween-80) 93 % of control; (dose: 3.13 mg/kg/injection, schedule: Q07DX002 (ip), vehicle: saline with Tween-80) 90 % of control; (dose: 6.25 mg/kg/injection, schedule: Q07DX002 (ip), vehicle: saline with Tween-80) 70 % of control; under setting [3], 56 % of control.

For `CC(=S)NC(O)C(=O)c1ccccc1` (centres undefined), the T/C is, setting by setting: under setting [4], 71 % of control and 82 % of control; under setting [5], 77 % of control and 99 % of control; under setting [6], 98 % of control and 103 % of control; under setting [7], 115 % of control.

`COc1ccc2[nH]c3c(c2c1)CCNC3CC(C)CCC=C(C)C` (centres undefined): the T/C runs as follows: under setting [8], 88 % of control and 97 % of control; under setting [9], 82 % of control; under setting [10], 57 % of control.

As for `Oc1ccc(O)cc1`, the T/C by setting is: (dose: 6.25 mg/kg/injection, schedule: Q07DX002 (ip), vehicle: suspension in saline) 80 % of control; (dose: 12.5 mg/kg/injection, schedule: Q07DX002 (ip), vehicle: suspension in saline) 95 % of control; (dose: 25.0 mg/kg/injection, schedule: Q07DX002 (ip), vehicle: suspension in saline) 108 % of control; (dose: 50.0 mg/kg/injection, schedule: Q07DX002 (ip), vehicle: suspension in saline) 94 % of control; (dose: 100.0 mg/kg/injection, schedule: Q07DX002 (ip), vehicle: suspension in saline) 97 % of control.

On to `N=C(N)SCc1cccc2c(=O)cc(-c3ccccc3)oc12`, for which the T/C (dose: 800.0 mg/kg/injection, schedule: Q07DX002 (ip), vehicle: saline) is 52 % of control and 69 % of control.

Regarding `C/C=C/C1=CC(=O)C(O)C1O` (centres undefined), the T/C (dose: 90.0 mg/kg/injection, schedule: Q07DX002 (ip), vehicle: water) is 75 % of control and the T/C (dose: 180.0 mg/kg/injection, schedule: Q07DX002 (ip), vehicle: water) was 170 % of control.

For the compound `Nc1nncs1`, the T/C was 71 % of control under setting [1]; 114 % of control under setting [2]; 78 % of control (dose: 50.0 mg/kg/injection, schedule: Q07DX002 (ip), vehicle: saline); 74 % of control (dose: 50.0 mg/kg/injection, schedule: Q07DX003 (ip), vehicle: saline); 68 % of control (dose: 100.0 mg/kg/injection, schedule: Q07DX002 (ip), vehicle: saline); 78 % of control and 79 % of control (dose: 100.0 mg/kg/injection, schedule: Q07DX003 (ip), vehicle: saline). Moreover, the T/C (dose: 200.0 mg/kg/injection, schedule: Q07DX002 (ip), vehicle: saline) was 53 % of control; the T/C (dose: 200.0 mg/kg/injection, schedule: Q07DX003 (ip), vehicle: saline) is 58 % of control and 74 % of control; the T/C (dose: 400.0 mg/kg/injection, schedule: Q07DX002 (ip), vehicle: saline) is 65 % of control; the T/C (dose: 400.0 mg/kg/injection, schedule: Q07DX003 (ip), vehicle: saline) was 35 % of control and 38 % of control; the T/C (dose: 800.0 mg/kg/injection, schedule: Q07DX003 (ip), vehicle: saline) is 51 % of control and 53 % of control.

As to `O=C(NO)c1cc(O)c(O)c(O)c1`, the T/C under setting [14] is 80 % of control; the T/C under setting [15] is 70 % of control; the T/C under setting [16] is 68 % of control; the T/C under setting [17] was 83 % of control; the T/C (dose: 800.0 mg/kg/injection, schedule: Q07DX002 (ip), vehicle: water) is 40 % of control.

As to `O=C1N[C@H]2[C@H](CS[C@H]2CCCCC(=O)N(CCP(c2ccccc2)c2ccccc2)CCP(c2ccccc2)c2ccccc2)N1`, the T/C by setting is: under setting [10], 71 % of control; under setting [11], 71 % of control; under setting [12], 91 % of control; under setting [13], 96 % of control; (dose: 800.0 mg/kg/injection, schedule: Q07DX002 (ip), vehicle: Klucel (hydroxypropylcellulose) (HPC)) 89 % of control.

The values above are taken from PubChem BioAssay AID212 (DTP/NCI, 2004).
